# Measurements reported in publication PMC6409614, “BmTudor-sn Is a Binding Protein of Destruxin A in Silkworm Bm12 Cells” (Toxins, 2019).
# Non-standard residues stand in square brackets, D forms with d. Residues, ends and D or L forms follow the SMILES beside them. dLac(3-vinyl) = C=CC[C@@H](O)C(=O)O; NMeV = CN[C@H](C(=O)O)C(C)C; NMeA = CN[C@@H](C)C(=O)O; βAla = NCCC(=O)O
# Columns and labels:
# V-ATPase = details: silkworm hemocytes; earlier work of the authors, no reference given; cited from earlier work
# Text: (§1) DA has been previously reported to play a role in immune related pathways and in inducing the immunosuppression phenotype in insects. The majority of studies have focused on these roles, while few have addressed the mechanism of action in cells. […] Tudor-sn, a multifunctional protein, was reported to regulate do ...
# [1] = cited from earlier work
# Text: as §1
# BmAGO2 [2] = assay: Bio-Layer Interferometry (BLI), BmAGO2; type: binding, Bombyx mori; details: recombinant protein from Sf9 cells, DA 7.813-500 μM
# Method: (§2) All proteins were prepared by eukaryotic expression in the Sf9 cell line. These were tagged with His-tag and purified by nickel affinity chromatography. BLI analysis was performed on a ForteBio OctetQK System (K2, Pall Fortebio Corp, Menlo Park, CA, USA). Generally, the protein samples were coupled with a biosensor for immobilization. Serial not gradient dilutions of DA (500, 250, 125, 62.5, 31.25, 15.63, and 7.813 μM) were used for treatment. PBST buffer (0.05% Tween20, 5% DMSO) was used for the reference and dilution buffers. The working procedure was baseline for 60 s, association for 60 s, and dissociation for 60 s. Finally, the raw data were processed with Data Analysis Software (9.0, Pall Fortebio Corp, Menlo Park, CA, USA).
# BmAGO2 [3] = assay: Transcriptional level of BmAGO2; type: cell-based, Bombyx mori; details: by DA; method not described
# BmTudor-sn [4] = details: Bm12 cells; specific proteinase; earlier DARTS analysis of the authors; reference not given; cited from earlier work
# Text: Molecular docking is a reasonable, efficient, and convenient strategy to narrow down candidates among all proteins compared to other methods such as heterologous expression and kinetic analysis, which require verification one by one. However, it seems paradoxical in this study that proteins with the top docking scores were not the binding protein [24]. Actually, docking is a completely theoretical speculation, and other experiments are required to draw a conclusion. H ...
# BmPiwi [5] = assay: Cellular thermal shift assay (CETSA), BmPiwi; type: cell-based, Bombyx mori; details: Bm12 cells, DA 200 µg/mL, 37–58 °C, freeze-thaw lysis, western blot of supernatant
# Method: (§3) The Bm12 cell line was used to conduct the CETSA and immunoblot experiments. Cells were treated with DA. For immunoblotting, cell extracts from different DA treatments, collected after incubation with RIPA lysis buffer, were digested with proteinase K and then heated in water at 90 °C for 5 min. Samples were analyzed using SDS-PAGE and transferred to PVDF membranes. The membranes were then incubated in skim milk powder, followed by incubation with primary and HRP antibodies. ECL was added to the chemiluminescence reaction. For CETSA, Bm12 cells, treated with 200 µg/mL DA, were divided into 8 aliquots, heated at 37–58 °C, and lysed by a freeze-thaw cycle. The supernatants of the lysed cells were used for the western blot analysis as described above.
# BmTudor-sn [6] = assay: Transcriptional level of BmTudor-sn; type: cell-based, Bombyx mori; details: by DA; method not described
# BmTudor-sn [7] = assay: Cellular thermal shift assay (CETSA), BmTudor-sn; type: cell-based, Bombyx mori; details: Bm12 cells
# Method: as §3
# BmTudor-sn with BmAGO1 = assay: Insect two-hybrid (I2H), interaction of BmTudor-sn and mutants with BmAGO1; type: cell-based, Bombyx mori; details: Sf9 cells, luciferase; for mutants with signal different from wild type: p < 0.05, DMRT
# Method: BmTudor-sn and mutants were cloned into the I2H vector pIE-AD, and BmAGO1 was cloned into the I2H vector pIE-DBD using the Gateway system. These vectors and the luciferase vector were co-transfected into the Sf9 cell line and treated with DA at 0.02 and 0.2 µg/mL. The luciferase activities in the cell extracts were determined using a Luciferase Reporter Assay System (Promega, Beijing, China) and Synergy™ H1 (BioTek, Winooski, VT, USA).
# Bm12 cells = assay: RNAi and viability assessment under DA treatment; type: cell-based, silkworm (Bombyx mori)
# Method: SiRNAs were prepared by synthesis in vitro. The sequence of BmTudor-sn siRNA is 5ʹ-[…]-3ʹ and 5ʹ-[…]-3ʹ. SiRNA and FuGENE transfection reagent were each diluted in serum-free medium and then mixed. The mixture was added to Bm12 cells after the DA treatment. Viability and toxicity assessment were performed following the manufacturer’s instructions.
# HSP = details: in vitro molecular interaction validation; cited from earlier work
# Text: (§4) Destruxins are cyclodepsipeptidic mycotoxins, and there are 39 analogues. […] Because of the immunosuppression activity of DA in insects, the majority of studies have focused on the mechanism of action of the effect of DA on the immune-related pathway or st ...
# insects = details: cited from earlier work
# Text: as §4
# [8] = system: heat shock proteins (HSPs); details: cultured cells (Bm12), DARTS; cited from earlier work
# Text: as §4
# BmTudor-sn [9] = assay: Bio-Layer Interferometry (BLI), BmTudor-sn; type: binding, Bombyx mori; details: PBST (0.05% Tween20, 5% DMSO)
# Method: as §2
# BmTudor-sn [10] = assay: Immunoblot after proteolysis, BmTudor-sn; type: cell-based, Bombyx mori; details: Bm12 cell extracts from different DA treatments, proteinase K, western blot
# Method: as §3
# BmPiwi [11] = assay: Bio-Layer Interferometry (BLI), BmPiwi; type: binding, Bombyx mori; details: recombinant protein from Sf9 cells, DA 7.813-500 μM
# Method: as §2
# BmPiwi [12] = assay: Transcriptional level of BmPiwi; type: cell-based, Bombyx mori; details: by DA; method not described
# BmAGO2 [13] = assay: Cellular thermal shift assay (CETSA), BmAGO2; type: cell-based, Bombyx mori; details: Bm12 cells, DA 200 µg/mL, 37–58 °C, freeze-thaw lysis, western blot of supernatant
# Method: as §3
# BmTudor-sn [14] = target: T1, BmTudor-sn (Bombyx mori, UniProt D9N4J4); assay: cellular thermal shift assay (CETSA), western blot, endogenous protein in Bm12 cells; type: cell-based; details: 200 µg/mL DA; intact Bm12 cells heated at 37–58 °C
# T1 construct: gene Tudor-SN; endogenous protein in Bm12 cells (CETSA); four staphylococcal nuclease domains and a Tudor domain
# T1 sequence (D9N4J4 1-888): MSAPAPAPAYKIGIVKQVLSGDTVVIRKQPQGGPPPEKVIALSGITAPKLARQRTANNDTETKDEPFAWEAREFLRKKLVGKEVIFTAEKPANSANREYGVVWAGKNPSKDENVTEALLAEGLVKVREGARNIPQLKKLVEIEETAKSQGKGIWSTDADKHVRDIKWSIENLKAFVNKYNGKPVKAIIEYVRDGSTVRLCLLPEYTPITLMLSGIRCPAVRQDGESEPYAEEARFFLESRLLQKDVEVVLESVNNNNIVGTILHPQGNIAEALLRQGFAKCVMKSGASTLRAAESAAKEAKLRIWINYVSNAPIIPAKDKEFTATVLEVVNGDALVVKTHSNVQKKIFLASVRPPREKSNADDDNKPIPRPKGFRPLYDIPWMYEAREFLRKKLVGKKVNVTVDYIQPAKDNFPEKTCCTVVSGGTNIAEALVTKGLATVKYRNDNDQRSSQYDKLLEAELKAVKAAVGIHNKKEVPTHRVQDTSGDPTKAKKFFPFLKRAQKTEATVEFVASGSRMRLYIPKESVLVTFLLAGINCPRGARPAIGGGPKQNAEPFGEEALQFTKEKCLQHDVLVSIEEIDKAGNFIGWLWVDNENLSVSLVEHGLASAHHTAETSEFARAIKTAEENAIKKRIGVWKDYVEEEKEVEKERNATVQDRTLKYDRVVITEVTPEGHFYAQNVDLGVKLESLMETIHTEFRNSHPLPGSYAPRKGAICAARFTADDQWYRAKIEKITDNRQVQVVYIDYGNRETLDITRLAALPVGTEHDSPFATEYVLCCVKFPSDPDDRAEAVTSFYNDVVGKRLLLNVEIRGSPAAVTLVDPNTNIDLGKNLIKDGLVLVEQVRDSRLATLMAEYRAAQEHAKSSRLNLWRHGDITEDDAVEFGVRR
# BmTudor-sn [15] = target: T1, BmTudor-sn; assay: bio-layer interferometry (ForteBio OctetQK), protein immobilised on biosensor; type: binding
# [16] = DA 0.02 or 0.2 µg/mL, by mutant site
compound,measurement,setting,value
Destruxin B [DB],sensitivity to V-ATPase compared with DA,V-ATPase,more sensitive to V-ATPase than DA in silkworm hemocytes
same,anti-cancer activity,[1],clear anti-cancer activity
"C=CC[C@H]1OC(=O)CCNC(=O)[C@H](C)N(C)C(=O)[C@H](C(C)C)N(C)C(=O)[C@H]([C@@H](C)CC)NC(=O)[C@@H]2CCCN2C1=O [DA, Destruxin A] (cyclo([dLac(3-vinyl)]PI[NMeV][NMeA][βAla])) [listing 1 of 2 here]",interaction with DA,BmAGO2 [2],not BmPiwi or BmAGO2
same,upregulation at the transcriptional level,BmAGO2 [3],2-3 fold
same,appearance of BmTudor-sn in DARTS,BmTudor-sn [4],only appeared in the 200 µg/mL treatment with a specific proteinase and not at the lower dosage and with other proteinases
same,thermal stability shift (CETSA),BmPiwi [5],no thermal stability shift in BmPiwi and BmAGO2
same,upregulation at the transcriptional level,BmTudor-sn [6],2-3 fold
same,"thermal stability (CETSA), dose dependence",BmTudor-sn [7]; 200 µg/mL versus lower dose,BmTudor-sn showed thermal stability with the 200 µg/mL treatment and not at the lower dose
same,thermal stability (CETSA),"BmTudor-sn [7]; DA 200 µg/mL, 37–58 °C, freeze-thaw lysis, western blot of supernatant",thermal stability of BmTudor-sn increased following DA binding modification
same,mutants with signal different from wild type,BmTudor-sn with BmAGO1; DA 0.02 µg/mL,"2 mutants, Ser707Ala and leu704Ala"
same,mutants with signal different from wild type,BmTudor-sn with BmAGO1; DA 0.2 µg/mL,"3 mutants, Ser701Ala, Leu704Ala, and Tyr708Ala"
same,domain of differing mutants,BmTudor-sn with BmAGO1; DA 0.02 and 0.2 µg/mL,"in the Tudor domain (Ser707, Leu704, Ser701, Tyr708) rather than the SN3 (Lys492) and SN4 (Lys582) domains"
same,interaction site at both concentrations,BmTudor-sn with BmAGO1; DA 0.02 and 0.2 µg/mL,interacts with BmTudor-sn at both concentrations at Leu704
same,"effect on BmTudor-sn/BmAGO1 pair interaction, impeded",BmTudor-sn with BmAGO1; [16],impeded the protein pair interaction at Ser707 and Tyr708
same,"effect on BmTudor-sn/BmAGO1 pair interaction, promoted",BmTudor-sn with BmAGO1; [16],promoted it at Leu704 and Ser701
same,viability of BmTudor-sn knock down cells,"Bm12 cells; Bm12 cells under DA treatment, * p < 0.05, t test",higher viability under DA treatment
same,increase in viability with BmTudor-sn knockdown,"Bm12 cells; Bm12 cells, BmTudor-sn siRNA, DA treatment",approximately 20%
same,binding to an HSP,HSP,binds to an HSP in vitro
same,insecticidal effect and anti-immunity activity,insects,strong insecticidal effect and anti-immunity activity
same,induction of heat shock proteins,[8],greatly induced heat shock proteins (HSPs) in cultured cells
same,Kd,"BmTudor-sn [9]; BLI, ForteBio OctetQK, His-tagged recombinant protein from Sf9 cells immobilized, association 60 s, dissociation 60 s, DA 7.813-500 μM, read-out: affinity constant KD",587 µM
same,interaction with DA,"BmTudor-sn [9]; BLI, DA 125, 250 and 500 µM","interacts with BmTudor-sn at concentrations of 125 µm, 250 µm, and 500 µm"
same,BLI Response,BmTudor-sn [9]; DA 7.81 uM,-0.0024
same,BLI Response,BmTudor-sn [9]; DA 15.6 uM,-0.0035
same,BLI Response,BmTudor-sn [9]; DA 31.3 uM,-0.0012
same,BLI Response,BmTudor-sn [9]; DA 62.5 uM,0.0001
same,BLI Response,BmTudor-sn [9]; DA 125 uM,0.0032
same,BLI Response,BmTudor-sn [9]; DA 250 uM,0.0086
same,BLI Response,BmTudor-sn [9]; DA 500 uM,0.0071
same,protein stability under proteolysis (immunoblot),BmTudor-sn [10],stable with DA treatment in a dosage-dependent manner under proteolysis
same,interaction with DA,BmPiwi [11],not BmPiwi or BmAGO2
same,upregulation at the transcriptional level,BmPiwi [12],2-3 fold
same,thermal stability shift (CETSA),BmAGO2 [13],no thermal stability shift in BmPiwi and BmAGO2
"C=CC[C@H]1OC(=O)CCNC(=O)[C@H](C)N(C)C(=O)[C@H](C(C)C)N(C)C(=O)[C@H]([C@@H](C)CC)NC(=O)[C@@H]2CCCN2C1=O [DA, Destruxin A] (cyclo([dLac(3-vinyl)]PI[NMeV][NMeA][βAla])) [listing 2 of 2 here]",thermal stability shift,BmTudor-sn [14],the thermal stability of BmTudor-sn increased following DA binding modification
same,Kd,BmTudor-sn [15],587 µM
